Experimental findings from ChEMBL document CHEMBL4340549, “Design, synthesis and biological evaluation of isochroman-4-one hybrids bearing piperazine moiety as antihypertensive agent candidates” (Bioorg Med Chem, 2019) are described below.

The subject of data set [1] is Rattus norvegicus. Briefly: Antihypertensive activity in spontaneously hypertensive rat assessed as reduction in mean arterial pressure at 80 mg/kg, po measured after 4 hrs by tail-cuff method. The data set is classed as functional. Details: scale not given: the % may be the effect or the level left.
In data set [2] the test system is Rattus norvegicus. Kind of data set: Antihypertensive activity in spontaneously hypertensive rat assessed as systolic arterial pressure at 80 mg/kg, po measured after 2 hrs by tail-cuff method (reference value: 189.20 +/- 12.31 mmHg). It counts as functional.
Data set [3] has as its system Rattus norvegicus. Kind of data set: Antihypertensive activity in spontaneously hypertensive rat assessed as mean arterial pressure at 80 mg/kg, po measured after 0 hrs by tail-cuff method (reference value: 161.70 +/- 5.12 mmHg). The data set is classed as functional.
In data set [4] the test system is Rattus norvegicus. Kind of data set: Effect on heart rate in spontaneously hypertensive rat assessed as heart rate level at 80 mg/kg, po measured after 4 hrs by tail-cuff method (reference value: 410.80 +/- 17.4 bpm). The data set is classed as ADME, organism-based. The conditions noted are these: in vivo.
Data set [5] deals with Rattus norvegicus. Kind of data set: Antihypertensive activity in spontaneously hypertensive rat assessed as mean arterial pressure at 80 mg/kg, po measured after 6 hrs by tail-cuff method (reference value: 151.48 +/- 12.24 mmHg). It counts as functional.
The species named for data set [6] is Rattus norvegicus. Kind of data set: Ratio of pA2 for alpha-1b adrenergic receptor in SPF rat spleen to pA2 for alpha-1a adrenergic receptor in SPF rat prostatic vas deferens. It counts as tissue-based.
The test system of data set [7] is Rattus norvegicus. Kind of data set: Antihypertensive activity in spontaneously hypertensive rat assessed as diastolic arterial pressure at 80 mg/kg, po measured after 1 hr by tail-cuff method (reference value: 147.33 +/- 9.8 mmHg). The data set is classed as functional.
Data set [8] concerns the target T1, Alpha-1B adrenergic receptor (Rattus norvegicus, UniProt P15823).
T1 sequence (P15823 whole entry): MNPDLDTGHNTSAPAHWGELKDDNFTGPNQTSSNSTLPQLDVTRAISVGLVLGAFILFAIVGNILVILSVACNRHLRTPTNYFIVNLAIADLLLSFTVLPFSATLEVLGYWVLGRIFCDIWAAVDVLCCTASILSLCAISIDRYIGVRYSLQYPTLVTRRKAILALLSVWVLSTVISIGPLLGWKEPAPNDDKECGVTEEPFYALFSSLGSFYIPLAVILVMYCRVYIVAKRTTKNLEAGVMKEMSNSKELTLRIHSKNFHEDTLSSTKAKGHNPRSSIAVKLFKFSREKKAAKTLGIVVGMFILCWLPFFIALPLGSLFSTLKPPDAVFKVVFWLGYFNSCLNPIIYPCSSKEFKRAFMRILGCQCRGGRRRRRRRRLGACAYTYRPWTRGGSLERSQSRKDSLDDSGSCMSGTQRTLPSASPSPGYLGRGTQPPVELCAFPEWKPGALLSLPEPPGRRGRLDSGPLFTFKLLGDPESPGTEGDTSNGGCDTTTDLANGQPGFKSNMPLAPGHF
Briefly: Antagonist activity at alpha-1b adrenergic receptor in SPF rat spleen assessed as inhibition of noradrenaline-induced contractions. The data set is classed as tissue-based. The conditions noted are these: read-out: pA2 (converted).

The next data set concerns Thoracic aorta. Kind of data set: Vasodilatory activity in Sprague-Dawley rat thoracic aorta assessed as inhibition of noradrenaline-induced contractions at 100 uM relative to untreated control. The data set is classed as functional.

As to `COc1cc2c(cc1OCC(O)CN1CCN(C(=O)C3CCCO3)CC1)C(=O)C(C)OC2` (centres undefined), the Activity is listed as 23.7% in the data set with Rattus norvegicus [1]; 150.8 mmHg in the data set with Rattus norvegicus [2]; 166.7 mmHg with Rattus norvegicus [3]; 405.15 bpm with Rattus norvegicus [4]; 140.83 mmHg in the data set with Rattus norvegicus [5]; 144.15 mmHg with Rattus norvegicus [7]. Further, the Ratio in the data set filed under Rattus norvegicus [6] worked out at 6.3. In data set [8], the Kb was 0.0355 µM. Further, the inhibition (as a rule, the percentage by which the read-out fell short of the control) at 100 µM in the data set with Thoracic aorta worked out at 64%.
